The target in assay [1] is K-RasG4 (parallel K-Ras promoter G4). Description: Competition fluorescence displacement, competitor K-Ras G4. The following applies: competitor binding affinity; 20 nM 3′-TAMRA MycPu22, 20 nM compound, 20° C., pH 7, 100 mM K+. How it is done:
(§1) Using a competition fluorescence displacement assay, the binding selectivity of five indenoisoquinolines for MycG4 was determined as compared to a parallel K-Ras promoter G4, a hybrid telomeric G4, and double-stranded (ds) DNA at 1 and 5 equivalents of each compound (FIGS. 7 and 16A-16C). The 3′-TAMRA labeled MycPu22 DNA was used as the fluorescence probe, whose fluorescence was quenched upon the binding of indenoisoquinolines. Upon addition of unlabeled, non-fluorescent competitors (e.g. other DNA G4s and dsDNA), the TAMRA-labeled MycPu22 DNA is displaced by the competitor DNA for indenoisoquinoline binding and the initial high TAMRA-fluorescence is restored. The competition fluorescence displacement assay allows for a straightforward assessment of selective binding towards MycG4 vs. the competitors, i.e. MycG4s (parallel), K-Ras G4 (parallel), telomeric G4 (hybrid), and dsDNA. One and five compound equivalents were used to assess the selectivity of the strongest binding site and other binding sites of each indenoisoquinoline. […] As shown in the modeling study, the substituents on the A- and D-rings of indenoisoquinolines likely contribute to binding MycG4 by more optimal stacking interactions with the external G-tetrads. On the other hand, the increased size of the indenoisoquinoline ring system may hinder intercalation in dsDNA due to possible steric collision with the DNA backbone. […] 6-Substituted indenoisoquinolines were previously reported to bind to the c-Kit promoter G4s which were also primarily parallel.^17
(§2) The competition fluorescence displacement experiments were performed on a Jasco FP-8300 Spectrofluorometer equipped with a temperature controller at 20° C. The stock solution containing 2 μM 3′-TAMRA-labelled MycPu22 oligonucleotide was diluted to 20 nM using 75 mM KCl, 25 mM phosphate buffer at pH 7.0. To check the binding selectivity of each compound to MycG4 DNA, 20 nM or 100 nM of the indenoisoquinoline was added to the DNA solution in a total volume of 1.6 mL in a quartz cell with a 10 mm path length. Subsequently, various unlabeled MycG4s (MycPu22 and MycPu28), K-Ras G4, telomeric G4 DNAs, or calf thymus dsDNA were gradually added to the complex solution. For each addition of the DNA, the sample was equilibrated at least 2 min. The fluorescence spectrum was recorded between 570 and 600 nm with an excitation wavelength of 555 nm, 10 nm bandwidths, 100 nm/min of scan speed, and 1 s of response time. The fluorescence intensities at the emission maximum (Δmax=580 nm) were plotted for figures. The competitor binding affinities (K, values) were calculated by
(§3) using data from 20 nM compound. The C50 value was the concentration of the unlabeled competing DNA that recovers the fluorescence of the labelled DNA by 50%. [L] represents the ligand concentration that is a constant value of 20 nM. Kd,app values were obtained by fluorescence-based binding assay.

The subject of the next assay is Telomeric G4 (hybrid). The assay is described as follows: Competition fluorescence displacement, competitor telomeric G4. The conditions noted are these: for binding selectivity for parallel G4s over hybrid G4: competition fluorescence displacement, 1 and 5 equivalents; for Ki: competitor binding affinity, 20 nM 3′-TAMRA MycPu22, 20 nM compound, 20° C., pH 7, 100 mM K+. The format is binding. Here is the method:
as §1, §2, §3

The target in another assay is MycPu22. Description: Competition fluorescence displacement, competitor MycPu22. On the set-up: species or system human. The conditions noted are these: competitor binding affinity; 20 nM 3′-TAMRA MycPu22, 20 nM compound, 20° C., pH 7, 100 mM K+. How it is done:
as §1, §2, §3

The target of the next assay is MycPu28. Description: Competition fluorescence displacement, competitor MycPu28. The conditions noted are these: competitor binding affinity; 20 nM 3′-TAMRA MycPu22, 20 nM compound, 20° C., pH 7, 100 mM K+. More on the design: species or system human. Here is the method:
as §1, §2, §3

A further assay deals with calf thymus dsDNA. Description: Competition fluorescence displacement, competitor dsDNA. Format: binding. The conditions noted are these: for binding selectivity for DNA G4s over dsDNA: competition fluorescence displacement, 1 and 5 equivalents; for Ki: competitor binding affinity, Ki refers to the base-pair concentration, 20 nM compound, 20° C., pH 7, 100 mM K+. Here is the method: as §1, §2, §3

Regarding `COc1cnc2c(c1)C(=O)c1c-2n(CCCNC(C)C)c(=O)c2cc(F)ccc12` [Compound 5], the Ki in assay [1] was 21 nM; on Telomeric G4 (hybrid), 164 nM; on MycPu22, 16 nM; at MycPu28, 18 nM; in the assay with calf thymus dsDNA, about 11000 nM. In addition, in the assay with Telomeric G4 (hybrid), the “binding selectivity for parallel G4s over hybrid G4” value is “marked selectivity”. For the same molecule, the “binding selectivity for DNA G4s over dsDNA” value in the assay with calf thymus dsDNA is “remarkable selectivity”.

Take `O=C1c2ccccc2-c2c1c1ccccc1c(=O)n2CCCNCCO` [Compound 13]: the Ki worked out at 23 nM in assay [1]; 146 nM on Telomeric G4 (hybrid); 26 nM on MycPu22; 19 nM at MycPu28; 2140 nM with calf thymus dsDNA. The “binding selectivity for parallel G4s over hybrid G4” value in the assay with Telomeric G4 (hybrid) was “selectivity for parallel G4s over hybrid G4”. The “binding selectivity for DNA G4s over dsDNA” value in the assay on calf thymus dsDNA was “much less selectivity against dsDNA”.

As for `COc1cnc2c(c1)C(=O)c1c-2n(CCCNC2=NCCS2)c(=O)c2cc([N+](=O)[O-])ccc12` [Compound 12], the Ki in assay [1] came out at 7 nM; on Telomeric G4 (hybrid) it was 14 nM; at MycPu22, 7 nM; on MycPu28, 7 nM; in the assay on calf thymus dsDNA, 3620 nM. In the assay on Telomeric G4 (hybrid), the “binding selectivity for parallel G4s over hybrid G4” value is “much less selectivity”. For the same molecule, in the assay on calf thymus dsDNA, the “binding selectivity for DNA G4s over dsDNA” value was “remarkable selectivity”.

In the case of `CNCCCn1c2c(c3ccc(F)cc3c1=O)C(=O)c1cc(OC)cnc1-2` [Compound 6], the Ki in assay [1] is 32 nM; at Telomeric G4 (hybrid), 286 nM; on MycPu22, 40 nM; on MycPu28 it was 33 nM; in the assay with calf thymus dsDNA, about 12000 nM. In the assay on Telomeric G4 (hybrid), the “binding selectivity for parallel G4s over hybrid G4” value was “marked selectivity”. In the assay with calf thymus dsDNA, the “binding selectivity for DNA G4s over dsDNA” value was “remarkable selectivity”.

Take `COc1cnc2c(c1)C(=O)c1c-2n(CCCN2CCCC2)c(=O)c2cc([N+](=O)[O-])ccc12` [Compound 9]: the Ki in assay [1] worked out at 11 nM; on Telomeric G4 (hybrid) it was 28 nM; at MycPu22 it was 12 nM; at MycPu28 it was 11 nM; in the assay on calf thymus dsDNA it was 5170 nM. In addition, the “binding selectivity for parallel G4s over hybrid G4” value in the assay on Telomeric G4 (hybrid) is on record as “much less selectivity”. In the assay with calf thymus dsDNA, the “binding selectivity for DNA G4s over dsDNA” value is recorded as “remarkable selectivity”.

Usually Ki stands for a dissociation constant, usually derived from enzyme kinetics or from competition with a known ligand.

Values taken from patent US20210382058A1, “PATIENT SELECTION FOR TREATMENT OF MYC POSITIVE CANCERS WITH INDENOISOQUINOLINES” (Purdue Research Foundation, priority 2020, published 2021).
